Source: article PMC9749936, “Synthesis and structure–activity relationship studies of N-terminal analogues of the lipopeptide antibiotics brevicidine and laterocidine” (RSC Medicinal Chemistry, 2022)
Read-outs that look alike come from different tables or passages of the source. Bridge positions count the residues as written; N and C are the ends. Square brackets hold non-standard residues; d marks the D form. Peptide text beside a SMILES is read from it. * marks the point of attachment. ξ: configuration not given here. Hexanoyl(4ξ-Me) = CCC(C)CCC(=O)*; Myristoyl = CCCCCCCCCCCCCC(=O)*; dOrn = NCCC[C@@H](N)C(=O)O; X1 = CC[C@H](C)CCCCC(=O)*; Octanoyl = CCCCCCCC(=O)*; Orn = NCCC[C@H](N)C(=O)O; Dab = NCC[C@H](N)C(=O)O

Columns and labels:
E. coli ATCC 25922 = type: cell-based, Escherichia coli
Method: (§1) The minimum inhibitory concentrations (MICs) of brevicidine and laterocidine analogues were determined against a panel of clinically relevant ESKAPE pathogens; Escherichia coli (E. coli), Klebsiella pneumoniae (K. pneumoniae), Acinetobacter baumannii (A. baumannii), Pseudomonas aeruginosa (P. aeuroginosa) and Staphylococcus aureus (S. aureus), which cause the majority of nosocomial infections in the United States.[16] […] In this resistance mechanism, the polymyxin target (lipid A) is modified, reducing binding affinity. For this reason, a strain of colistin-resistant E. coli carrying the mcr-1 gene was also included in the panel. […]
(§2) IV. Antimicrobial testing
(§3) All minimum inhibitory concentrations (MICs) were determined according to Clinical and Standards Laboratory Institute (CLSI) guidelines. Blood agar plates were inoculated with glycerol stocks of E. coli ATCC 25922, K. pneumoniae ATCC 13883, A. baumannii ATCC 17961, P. aeruginosa PAO1 and S. aureus USA300. The inoculated agar plates were then incubated for 16 h at 37 °C . Individually grown colonies were subsequently used to inoculate 5 mL aliquots of TSB that were then incubated at 37 °C with shaking at 220 rpm. E. coli 25922 MCR-1 glycerol stock was used to inoculate 5 mL of TSB supplemented with kanamycin that was then incubated for 16 h at 37 °C with shaking at 220 rpm. The next day the culture was diluted 100 fold in TSB supplemented with kanamycin and incubated at 37 °C with shaking at 220 rpm. In parallel, the lipopeptide antibiotics DMSO stocks to be assessed were serially diluted with MHB in polypropylene 96-well plates (50 µL in each well). Colistin sulfate stocks were dissolved in water before being diluted with MHB. Aliquots of the inoculated TSB were incubated until an OD600 of around 0.5 was reached. The bacterial suspensions were then diluted with MHB (2 x 10^5 CFU mL-1) and added to the microplates containing the test compounds (50 µL to each well). The well-plates were sealed with an adhesive membrane and after 18 h of incubation at 37 °C with shaking at 600 rpm, the wells were visually inspected for bacterial […]
(§4) growth. MIC values reported are based on three technical replicates and defined as the lowest concentration of the compound that prevented visible growth of bacteria. […]
(§5) The values obtained from a read-out at 415 nm were corrected for background (negative control) and transformed to a percentage relative to the positive control.
(§6) VI. HPLC and HRMS analysis of peptides
(§7) Peptide Name Chemical Calcd Mass found Calcd Overall […]

E. coli ATCC 25922 MCR-1 = type: cell-based, Escherichia coli
Method: as §1
Colisitin sulfate was purchased from Activate Scientific. Kanamycin monosulfate was purchased from MP Biomedicals. E. coli ATCC 25922, S. aureus USA300 (ATCC BAA1717), K. pneumoniae ATCC 13883 and A. baumannii ATCC 17961 belong to the American Type Culture Collection (ATCC). P. aeruginosa PAO1 was kindly provided by L.H.C. Quarles Van Ufford, Utrecht University, Utrecht, The Netherlands. E. coli ATCC 25922 MCR-1 was transfected in house using the pGDP2-MCR1 plasmid kindly provided by Yong-Xin Li, The University of Hong Kong, Hong Kong, China. Sheep blood agar plates (Ref. PB5039A) were purchased from Thermo Scientific. Tryptic soy broth (Ref. 02-200-500) was purchased from Scharlab. Mueller-Hinton broth (Ref. X927.1) was purchased from Carl Roth. Polypropylene 96-wells plates (Ref. 3879) were purchased from Corning. […]
(10.0 mL). 2-Chlorotrityl (CT) chloride resin (2.00 g, 0.81 mmol g-1) and DIPEA (420 µL, 2.40 mmol) were added. […]
A gradient […]
method for C14 - C16 laterocidine was employed, starting at 100% solvent A for 2 min, ramping up to 70 % solvent B over 45 min, ramping up to 100% solvent B over 1 min, remaining there for 6 min before ramping down to 100% solvent A and remaining there for 5 min. High resolution mass spectrometry (HRMS) spectra of brevicidine peptides were recorded by Analytical Services and Environmental Projects (ASEP) at Queen’s University Belfast on a Waters LCT Premier ToF mass spectrometer using the electrospray ionisation (ESI) technique. HRMS spectra of laterocidine peptides were performed on a Thermo Scientific Dionex UltiMate 3000 HPLC system with a Phenomenex Kinetex C18 (2.6 µm, 2.1 x 150 mm) column at 35 °C and equipped with a diode array detector. The following solvent system, at a flow rate of 0.3 mL/min, was used: solvent A = 0.1% formic acid in water, solvent B = 0.1% formic acid in acetonitrile. A gradient method was employed, starting at 95 % solvent A and 5 % solvent B for 1 min, ramping up to 95 % solvent B over 9 min, ramping up to 98 % solvent B over 1 min, remaining there for 1 min before ramping back down to 95 % solvent A over 2 min and remaining there for 1 min.
The system was connected to a Bruker micrOTOF-Q II mass spectrometer (ESI ionization) calibrated internally with sodium […]
as §2
as §3, with “MHB.” for “MHB. Aliquots of the inoculated TSB were incubated until an OD600 of around 0.5 was reached. The bacterial suspensions were then diluted with MHB (2 x 10^5 CFU mL-1) and added to the microplates containing the test compounds (50 µL to each well). The well-plates were sealed with an adhesive membrane and after 18 h of incubation at 37 °C with shaking at 600 rpm, the wells were visually inspected for bacterial”

K. pneumoniae ATCC 13883 = type: cell-based, Klebsiella pneumoniae
Method: as §1, §2, §3, §4, §5, §6, §7

A. baumannii ATCC 17961 = type: cell-based, Acinetobacter baumannii
Method: as §1, §2, §3, §4, §5, §6, §7

P. aeruginosa PAO1 = type: cell-based, Pseudomonas aeruginosa
Method: as §1, §2, §3, §4, §5, §6, §7

S. aureus USA300 = type: cell-based, Staphylococcus aureus
Method: as §1, §2, §3, §4, §5, §6, §7

Sheep red blood cells = type: cell-based
Method: Having ascertained the antimicrobial activity of all synthetic peptides against a panel of ESKAPE pathogens, we next assessed their mammalian toxicity with hemolytic assays using sheep red blood cells. The % hemolysis for all peptides at 64 μg mL^−1 was determined, with the hemolysis induced by the surfactant 0.1% Triton X-100 taken as 100%. […] Hemolysis was <1% for all analogues with a C8 chain or shorter, including the strongest antibacterial peptide C8-Lat (22). Hemolytic activity increased up to C14 (>50% for C14-Lat) and then decreased at longer chain lengths, perhaps due to decreased solubility of peptides or aggregation. […]
Phosphate-Buffered Saline (PBS) containing 0.002% Tween20 (buffer) five times. Then, the red blood cells were normalized to obtain a positive control read-out between 2.5 and 3.0 at 415 nm to stay within the linear range with the maximum sensitivity. A serial dilution of the compounds (128 – 1 µg/mL, 75 µL) was prepared in a 96-well polypropylene plate. The outer border of the plate was filled with 75 µL buffer. Each plate contained a positive control (0.1% Triton-X final concentration, 75 µL) and a negative control (buffer, 75 µL) in triplicate. The normalized blood cells (75 µL) were added and the plates were incubated at 37 °C for 1 h while shaking at 500 rpm. A flat-bottom polystyrene plate with 100 µL buffer in each well was prepared. After incubation, the plates were centrifuged (800 g for 5 min at room temperature) and 25 µL of the supernatant was transferred to their respective wells in the flat-bottom plate. The values obtained from a read-out at 415 nm were corrected for background (negative control) and transformed to a percentage relative to the positive control. […]

[1] = CLSI broth microdilution in MHB, 18 h at 37 °C, visual inspection, three technical replicates
[2] = colistin-resistant strain carrying mcr-1, CLSI broth microdilution in MHB, 18 h at 37 °C, visual inspection, three technical replicates

SMILES | Antimicrobial activity (MIC) E. coli ATCC 25922 (E. coli ATCC 25922; CLSI broth microdilution in MHB, polypropylene 96-well plates, 18 h at 37 °C, visual inspection, three technical replicates) [µg/mL] | Antimicrobial activity (MIC) E. coli ATCC 25922 MCR-1 (E. coli ATCC 25922 MCR-1; ATCC 25922, 18 h) [µg/mL] | Antimicrobial activity (MIC) K. pneumoniae ATCC 13883 (K. pneumoniae ATCC 13883; [1]) [µg/mL] | Antimicrobial activity (MIC) A. baumannii ATCC 17961 (A. baumannii ATCC 17961; [1]) [µg/mL] | Antimicrobial activity (MIC) P. aeruginosa PAO1 (P. aeruginosa PAO1; [1]) [µg/mL] | Antimicrobial activity (MIC) S. aureus USA300 (S. aureus USA300; [1]) [µg/mL] | % Hemolytic activity, sheep red blood cells (Sheep red blood cells; peptide at 64 μg mL^−1, 1 h at 37 °C in PBS with 0.002% Tween20, read-out at 415 nm, relative to 0.1% Triton X-100 taken as 100%, triplicate) [%] | Antimicrobial activity (MIC) E. coli ATCC 25922 (E. coli ATCC 25922; ATCC 25922, 18 h) [µg/mL] | Antimicrobial activity (MIC) E. coli ATCC 25922 MCR-1 (E. coli ATCC 25922 MCR-1; [2]) [µg/mL] | Antimicrobial activity (MIC) K. pneumoniae ATCC 13883 (K. pneumoniae ATCC 13883; ATCC 13883, 18 h) [µg/mL] | Antimicrobial activity (MIC) A. baumannii ATCC 17961 (A. baumannii ATCC 17961; ATCC 17961, 18 h) [µg/mL] | Antimicrobial activity (MIC) P. aeruginosa PAO1 (P. aeruginosa PAO1; PAO1, 18 h) [µg/mL] | Antimicrobial activity (MIC) S. aureus USA300 (S. aureus USA300; USA300, 18 h) [µg/mL] | % Hemolytic activity, sheep red blood cells (Sheep red blood cells; red cells of sheep, 1 h, 64 μg mL^−1) [%]
CC[C@H](C)CCCCC(=O)N[C@@H](CCN)C(=O)N[C@H](C(=O)N[C@@H](CCN)C(=O)N[C@H]1CCNC(=O)[C@H]([C@@H](C)O)NC(=O)[C@H](CCN)NC(=O)[C@H](CCN)NC(=O)[C@H](CC(C)C)NC(=O)[C@@H](CC(C)C)NC(=O)[C@H](CCN)NC1=O)[C@@H](C)O [Colistin, colistin, reference compound] (X1-[Dab]T[Dab][Dab][Dab][dL]L[Dab][Dab]T; lactam 4-C (inferred); N-terminus assumed) | 0.5 | 8 | 0.5 | ≤0.25 | 4 | >32 | <0.1 | – | – | – | – | – | – | –
CCC(C)CCC(=O)N[C@H](CC(N)=O)C(=O)N[C@H](Cc1ccc(O)cc1)C(=O)N[C@H](Cc1c[nH]c2ccccc12)C(=O)N[C@H](CCCN)C(=O)N[C@@H](CCCN)C(=O)NCC(=O)N[C@H](CCCN)C(=O)N[C@@H](Cc1c[nH]c2ccccc12)C(=O)N[C@@H]1C(=O)N[C@@H]([C@@H](C)CC)C(=O)NCC(=O)N[C@@H](CO)C(=O)O[C@@H]1C (some centres unmarked) [Compound 1, brevicidine] ({Hexanoyl(4ξ-Me)}-[dN][dY][dW][dOrn][Orn]G[dOrn]WTIGS; ester 9-C) | – | – | – | – | – | – | – | 4 | 4 | 2 | 4 | 8 | >32 | 0.8
CCCCCCCC(=O)N[C@H](CO)C(=O)N[C@H](Cc1ccc(O)cc1)C(=O)N[C@H](Cc1c[nH]c2ccccc12)C(=O)N[C@H](CCCN)C(=O)N[C@@H](CCCN)C(=O)NCC(=O)N[C@H](CCCN)C(=O)N[C@@H](Cc1c[nH]c2ccccc12)C(=O)N[C@@H]1C(=O)N[C@@H]([C@@H](C)CC)C(=O)N[C@@H](CC(N)=O)C(=O)NCC(=O)NCC(=O)O[C@@H]1C [Compound 22] (Octanoyl-[dS][dY][dW][dOrn][Orn]G[dOrn]WTINGG; ester 9-C) | – | – | – | – | – | – | – | 2 | 2 | 2 | 4 | 2 | >32 | –
CCCCCCCCCCCCCC(=O)N[C@H](CO)C(=O)N[C@H](Cc1ccc(O)cc1)C(=O)N[C@H](Cc1c[nH]c2ccccc12)C(=O)N[C@H](CCCN)C(=O)N[C@@H](CCCN)C(=O)NCC(=O)N[C@H](CCCN)C(=O)N[C@@H](Cc1c[nH]c2ccccc12)C(=O)N[C@@H]1C(=O)N[C@@H]([C@@H](C)CC)C(=O)N[C@@H](CC(N)=O)C(=O)NCC(=O)NCC(=O)O[C@@H]1C [Compound 25] (Myristoyl-[dS][dY][dW][dOrn][Orn]G[dOrn]WTINGG; ester 9-C) | – | – | – | – | – | – | – | 8 | 8 | 8 | 2 | 8 | 16 | –
